Assay results reported in US20260152533A1, “COMBINATION INHIBITORS FOR TREATING FIBROSIS” (Memorial Sloan-Kettering Cancer Center, priority 2021, published 2026).

Legend:
[1] = tested on: pyruvate carboxylase (PC); experiment: Stable isotope tracing in NIH-3T3 cells (surrogate for PC activity); format: cell-based, mouse
Experimental: Cells were plated in six-well cell culture plates at a concentration aimed to reach 0.5-1×10^6 cells at the time of harvest. For quantification of relative metabolite abundance, cells were cultured with glutamine-free DMEM containing different concentrations of L-glutamine and supplemented with 10% dialyzed FBS and in some experiments were treated with TGFβ for 48 hours. For the [U-^13C]and [3,4-^13C]glucose tracing experiments, cells were cultured as above, and in the last 8 hours media was replaced with DMEM without D-glucose and L-glutamine supplemented with 2 mM or 0.2 mM L-glutamine and 10 mM [U-^13C]or [3,4-^13C]D-glucose (Cambridge Isotope Laboratories) and 10% dialyzed FBS. For the [U-^13C]and [1-^13C]lactate tracing experiments, cells were cultured in 2 or 0.2 mM L-glutamine, 10 or 1 mM D-glucose in the presence or absence of 10 mM sodium lactate, and in the last 8 hours media was replaced with DMEM without D-glucose and L-glutamine supplemented with 2 mM or 0.2 mM L-glutamine, 10 or 1 mM D-glucose, 10 mM [U-^13C]or [1-^13C]sodium lactate (Cambridge Isotope Laboratories) and 10% dialyzed FBS. For relative quantification of metabolites by gas chromatography-mass spectroscopy (GC-MS), cells were washed briefly with PBS, which was then fully aspirated and metabolism was quenched by immediately adding 1 mL of 80:20 methanol:water stored at −80° C. containing 20 μM deuterated 2-hydroxyglutarate (d5-2HG) as an internal standard. For stable isotope tracing experiments, metabolism was quenched without the PBS washing step by adding 1 mL of 80:20 methanol:water as above. After overnight incubation at −80° C., the resulting extracts were scraped on dry ice, transferred into a 1.5 mL centrifuge tube, and centrifuged at 20,000 g for 20 minutes at 4° C. The supernatants were collected in clean tubes and dried in a vacuum evaporator (Genevac EZ-2 Elite) for 2 hours.
For [U-^13C]glucose tracing into proteinogenic amino acids, cells were cultured in 10% Gln in the presence or absence of TGFβ for 48 hours. In the last 24 hours, the media including all treatments was replaced with DMEM without L-glutamine and D-glucose and supplemented with 0.2 mM L-glutamine and 10 mM [U-^13C]D-glucose (Cambridge Isotope Laboratories) and 10% dialyzed FBS. For [U-^13C]lactate tracing into ECM, confluent cells were cultured in 10% Gln in the presence of 10 mM [U-^13C]sodium lactate for 6 days. The media was replaced every other day. ECM was decellularized as described above. Cells and ECM were washed with PBS, and proteins were precipitated with methanol:chloroform:water (1:1:1). The interphase was washed with methanol, and the dried pellet was subjected to acid hydrolysis with 6 N hydrochloric acid (HCl) and incubation at 95° C. for 16 hours. Samples were cooled to room temperature and centrifuged at 20,000 g for 10 minutes. The cleared supernatant was dried in a vacuum evaporator (Genevac EZ-2 Elite) for 2 hours, and abundance of aspartate, glutamate/glutamine or hydroxyproline isotopologues was measured by GC-MS as described below.
GC-MS measurements were performed as described before^11. Ions used for quantification of metabolite levels were as follows: d5-2HG m/z 354; citrate m/z 465; alpha-ketoglutarate m/z 304; succinate m/z 247; fumarate m/z 245; malate m/z 335; aspartate m/z 232; hydroxyproline m/z 332; proline m/z 216; glutamate m/z 246; glutamine m/z 245; lactate m/z 219; pyruvate m/z 174. All peaks were manually inspected and verified relative to known spectra for each metabolite. Peak identification and integration were done with MassHunter software vB.09 (Agilent Technologies). For relative quantification of cell samples, integrated peak areas were normalized to the internal standard d5-2HG and to the packed cell volume of each sample. Absolute quantification of hydroxyproline in tumor acid hydrolysates was performed against a standard curve of commercial trans-4-hydroxy-L-proline (Sigma). […]

NIH-3T3 cells [2] = experiment: Western blot of NIH-3T3 cells (collagen I, GCN2, ATF4, PC); format: cell-based, mouse
Description: PSCs were isolated from C57BL/6 mice by differential centrifugation as previously described^49 and their mesenchymal origin was validated by analyzing the expression of various mesenchymal and epithelial markers. MFBs were isolated from FVB/N mice by differential centrifugation as previously described^50. DB7 mouse breast cancer cells were obtained from Alexander Borowsky (University of California Davis Comprehensive Cancer Center, Sacramento, CA, USA) through an MTA to Ohio State University (OSU). KPC (Kras^LSL-G12D; Trp53^LSL-R172H; Pdx1-Cre) mouse PDAC cells were a gift from Scott Lowe (Memorial Sloan Kettering Cancer Center. (MSKCC)). All cells were cultured at 37° C. in 5% carbon dioxide (CO2) and 20% oxygen (O2) and were maintained in Dulbecco's Modified Eagles medium (DMEM) (25 mM D-glucose, 2 mM L-glutamine) supplemented with 10% fetal bovine serum (FBS) (Gemini), 100 units/ml penicillin and 100 μg/ml streptomycin. Primary PSC and MFB cells were kept in culture for no more than ten passages. Experiments with iCAFs and myCAFs were performed as previously described^29. In brief, qPSCs were generated by culturing PSCs in a dome of GFR Matrigel (Corning) in DMEM; iCAFs were generated by culturing PSCs in a dome of GFR Matrigel in DMEM conditioned by KPC cells for 48 h; myCAFs were generated by monolayer culture of PSCs. Differentiation was validated by analyzing the expression of iCAF/myCAF markers^29. For experiments with different glutamine concentrations, cells were seeded in regular DMEM and the medium was changed 5-6 hours later or the following day to glucose and glutamine-free DMEM supplemented with 10% dialyzed FBS (Gemini) and 20 mM D-glucose, 2 mM L-glutamine (100%), 0.4 mM L-glutamine (20%) or 0.2 mM L-glutamine (10%). All media were prepared by the Media Preparation Facility at MSKCC. Cells were verified as mycoplasma-free by the MycoAlert Mycoplasma Detection Kit (Lonza).
Lysates were generated by incubating cells or ground tumors in RIPA buffer (Millipore); […] of cleared lysate were analyzed by SDS-polyacrylamide gel electrophoresis (SDS-PAGE) as previously described^11. […] The following secondary antibodies were used: anti-rabbit horseradish peroxidase (HRP) (1:5,000; GE, NA934V), anti-mouse HRP (1:5,000; GE, NA931). Quantification of band intensities of collagen I relative to […] or vinculin in tumor allograft experiments was performed with Image Lab software v6.0 (Bio-Rad).

NIH-3T3 cells [3] = conditions: proliferative fibroblasts, glutaminase inhibition; cited from earlier work
[4] = 10% Gln, TGFβ, 48 hours (FIG. 1G)

O=C(Cc1cccc(OC(F)(F)F)c1)Nc1ccc(CCCCc2nnc(NC(=O)Cc3ccccn3)s2)nn1 [CB839]
m+1 labelling of aspartate and pyruvate carboxylation activity from [3,4-13C]Glc ([1]; 100% Gln, CB839, 48 hours (FIG. 4G)): increased
m+3 labelling of TCA cycle intermediates and related NEAAs from [U-13C]Glc ([1]; CB839, 48 hours (FIG. 4F), indicative of anaplerosis via PC): increased
collagen I protein levels (NIH-3T3 cells [2]; [4]): only marginally increased
rescue of GCN2 activation induced by TGFβ treatment (NIH-3T3 cells [2]; [4]): did not rescue
collagen I levels (NIH-3T3 cells [2]; PC-deleted cells (PC sgRNA), CB839, 48 hours (FIG. 4H)): reduced collagen I levels
collagen I levels (NIH-3T3 cells [2]; full medium (100% Gln), CB839 1 μM alone, 48 hours (FIG. 4E)): did not affect
Gln-tRNA charging (NIH-3T3 cells [3]): restored
